Test results published in patent US4670562A, “Dihydropyrrolo[1,2-b]isoquinolinedione oximes” (priority 1986, dated 1987).
Like-named read-outs stand apart in the source and are kept apart here.

Molecular target: acetylcholinesterase (Homo sapiens, UniProt P22303)
Test: Cholinesterase Inhibition Assay (photometric method of Ellman et al.)
Type: biochemical
[1] = photometric method of Ellman et al., read-out: Cholinesterase Inhibition IC50

acetylcholinesterase, sequence (P22303 32-614): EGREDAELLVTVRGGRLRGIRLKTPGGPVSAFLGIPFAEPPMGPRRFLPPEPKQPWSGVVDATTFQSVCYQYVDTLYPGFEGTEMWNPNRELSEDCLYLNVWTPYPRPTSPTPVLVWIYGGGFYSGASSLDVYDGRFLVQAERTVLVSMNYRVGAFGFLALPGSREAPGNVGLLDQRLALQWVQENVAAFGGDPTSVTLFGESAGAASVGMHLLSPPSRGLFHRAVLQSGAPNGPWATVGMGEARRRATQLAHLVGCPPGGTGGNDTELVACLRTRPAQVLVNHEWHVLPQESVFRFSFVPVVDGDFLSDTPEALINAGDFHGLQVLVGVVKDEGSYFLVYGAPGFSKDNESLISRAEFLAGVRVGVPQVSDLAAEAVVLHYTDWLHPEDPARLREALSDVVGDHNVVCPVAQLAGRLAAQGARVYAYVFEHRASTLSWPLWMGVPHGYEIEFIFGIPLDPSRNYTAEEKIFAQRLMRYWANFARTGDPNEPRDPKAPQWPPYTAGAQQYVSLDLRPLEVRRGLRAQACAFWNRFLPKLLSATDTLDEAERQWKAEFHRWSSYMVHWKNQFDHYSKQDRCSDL

Row | Compound | IC50 [1] [µM] | IC50 [µM]
1 | c1ccc2c3c(ncc2c1)CCCN3 [1,2,3,4-Tetrahydrobenzo[c]-1,5-naphthyridine] | 61 | 
2 | O=C(Cc1ccccc1)N1CCCc2ncc3ccccc3c21 [1-(Phenylacetyl)-1,2,3,4-tetrahydrobenzo[c]-1,5-naphthyridine] | 320 | 
3 | CN1CCN(C2=Nc3c(ncc4ccccc34)CC2)CC1 [3,4-Dihydro-2-(4-methyl-1-piperazinyl)benzo[c]-1,5-naphthyridine hemihydrate] |  | 840
